Assay results: patent US12559529B2, “NPY2 receptor agonists” (Boehringer Ingelheim International GmbH, priority 2019, dated 2026)
*1 amine or outer side, *2 acyl side, *3 side chain or, on linkers, in order; H or OH if unused. Where a SMILES comes first, the peptide text is derived from it. Side-chain parts run from the residue outwards. The star is where a group is joined. C18 diacid = O=C(O)CCCCCCCCCCCCCCCCC(=O)*; γGlu = O=C(O)[C@H](CCC(=O)[*:2])N[*:1]; Isovaleryl = CC(C)CC(=O)*; AEEA = NCCOCCOCC(=O)O

These compounds were tested against T1, Human Neuropeptide Y2 Receptor (Homo sapiens, UniProt P49146) (assay: Radioligand binding competition assay (RLB)). Details: Table 3; human 125I-PYY (1-36) 0.02 nM, Y2 receptor membranes; read-out: Ki.
T1 construct: purchased CHEMICON HTS066M
T1 sequence (P49146 1-381): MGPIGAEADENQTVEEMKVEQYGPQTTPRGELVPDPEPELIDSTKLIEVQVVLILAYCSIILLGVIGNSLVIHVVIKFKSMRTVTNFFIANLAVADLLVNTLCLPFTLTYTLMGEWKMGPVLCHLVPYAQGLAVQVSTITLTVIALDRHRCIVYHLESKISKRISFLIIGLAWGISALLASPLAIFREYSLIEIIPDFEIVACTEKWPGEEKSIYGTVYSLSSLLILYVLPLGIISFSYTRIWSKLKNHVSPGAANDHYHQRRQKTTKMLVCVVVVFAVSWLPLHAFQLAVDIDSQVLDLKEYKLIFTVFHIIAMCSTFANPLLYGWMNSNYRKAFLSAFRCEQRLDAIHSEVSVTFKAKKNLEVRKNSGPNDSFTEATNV
Method in brief: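 Filtration format; Y2R membrane prep 0.5 μg/well; buffer 50 mM HEPES/5 mM MgCl2/1 mM CaCl2/0.2% ovalbumin pH 7.4; 2 h RT, shaking. Harvest on PEI-soaked GF/C, ice-cold HEPES/500 mM NaCl washes, scintillation count. IC50 by nonlinear fit.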

Row | SMILES | Ki
1 | CC(C)CC(=O)N[C@@H](C)C(=O)N1CCC[C@H]1C(=O)N[C@@H](CCC(=O)O)C(=O)N[C@@H](CCCCNC(=O)COCCOCCNC(=O)COCCOCCNC(=O)CC[C@H](NC(=O)CCCCCCCCCCCCCCCCC(=O)O)C(=O)O)C(=O)N1CCC[C@H]1C(=O)N[C@@H](CCC(=O)O)C(=O)N[C@@H](CCC(=O)O)C(=O)N[C@@H](CCC(=O)O)C(=O)N[C@@H](C)C(=O)N[C@@H](CO)C(=O)N1CCC[C@H]1C(=O)N[C@@H](CCC(=O)O)C(=O)N[C@@H](CCC(=O)O)C(=O)N[C@@H](CC(C)C)C(=O)N[C@@H](CCC(N)=O)C(=O)N[C@@H](C)C(=O)N[C@@H](Cc1ccc(O)cc1)C(=O)N[C@@H](Cc1ccc(O)cc1)C(=O)N[C@H](C(=O)N[C@@H](CO)C(=O)N[C@@H](CC(C)C)C(=O)N[C@@H](CCCNC(=N)N)C(=O)N[C@@H](Cc1c[nH]cn1)C(=O)N[C@@H](Cc1ccc(O)cc1)C(=O)N[C@@H](Cc1ccc(O)cc1)C(=O)N[C@@H](CC(N)=O)C(=O)N[C@@H](Cc1c[nH]c2ccccc12)C(=O)N[C@@H](CC(C)C)C(=O)N[C@H](C(=O)N[C@@H](CCCNC(=N)N)C(=O)N[C@@H](CCC(N)=O)C(=O)N[C@@H](CCCNC(=N)N)C(=O)N[C@@H](Cc1ccc(O)cc1)C(N)=O)[C@@H](C)O)C(C)C [Compound 68, N{alpha-4}-(3-methylbutanoyl)-N{epsilon-7}-[2-(2-{2-[2-(2-{2-[(4S)-4-carboxy-4-(17-carboxyheptadecanamido)butanamido]ethoxy}ethoxy)acetamido]ethoxy}ethoxy)acetamido]-[4A,7K,9E,11E,18Q,19A,22V,28Y,30W,31L]hPYY (4-36)] (Isovaleryl-APEK([AEEA-AEEA-γGlu-C18 diacid])PEEEASPEELQAYYVSLRHYYNWLTRQRY-NH2) | 8.47 nM
2 | CC(C)CC(=O)N[C@@H](C)C(=O)N1CCC[C@H]1C(=O)N[C@@H](CCC(=O)O)C(=O)N[C@@H](CCCCNC(=O)COCCOCCNC(=O)COCCOCCNC(=O)CC[C@H](NC(=O)CCCCCCCCCCCCCCCCC(=O)O)C(=O)O)C(=O)N1CCC[C@H]1C(=O)N[C@@H](CCC(=O)O)C(=O)N[C@@H](CCC(=O)O)C(=O)N[C@@H](CC(=O)O)C(=O)N[C@@H](CO)C(=O)N[C@@H](CO)C(=O)N[C@@H](C)C(=O)N[C@@H](CCC(=O)O)C(=O)N[C@@H](CCC(=O)O)C(=O)N[C@@H](CC(C)C)C(=O)N[C@@H](CCC(N)=O)C(=O)N[C@@H](CCCNC(=N)N)C(=O)N[C@@H](Cc1ccc(O)cc1)C(=O)N[C@@H](Cc1ccc(O)cc1)C(=O)N[C@H](C(=O)N[C@@H](CO)C(=O)N[C@@H](CC(C)C)C(=O)N[C@@H](CCCNC(=N)N)C(=O)N[C@@H](Cc1c[nH]cn1)C(=O)N[C@@H](Cc1ccc(O)cc1)C(=O)N[C@@H](Cc1ccc(O)cc1)C(=O)N[C@@H](CC(N)=O)C(=O)N[C@@H](Cc1c[nH]c2ccccc12)C(=O)N[C@@H](CC(C)C)C(=O)N[C@H](C(=O)N[C@@H](CCCNC(=N)N)C(=O)N[C@@H](CCC(N)=O)C(=O)N[C@@H](CCCNC(=N)N)C(=O)N[C@@H](Cc1ccc(O)cc1)C(N)=O)[C@@H](C)O)C(C)C [Compound 69, N{alpha-4}-(3-methylbutanoyl)-N{epsilon-7}-[2-(2-{2-[2-(2-{2-[(4S)-4-carboxy-4-(17-carboxyheptadecanamido)butanamido]ethoxy}ethoxy)acetamido]ethoxy}ethoxy)acetamido]-[4A,7K,9E,12S,14A,18Q,22V,28Y,30W,31L]hPYY (4-36)] | 5.74 nM
3 | CC(C)CC(=O)N[C@@H](C)C(=O)N1CCC[C@H]1C(=O)N[C@@H](CCC(=O)O)C(=O)N[C@@H](CCCCNC(=O)COCCOCCNC(=O)COCCOCCNC(=O)CC[C@H](NC(=O)CCCCCCCCCCCCCCCCC(=O)O)C(=O)O)C(=O)N1CCC[C@H]1C(=O)N[C@@H](CCC(=O)O)C(=O)N[C@@H](CCC(=O)O)C(=O)N[C@@H](C)C(=O)N[C@@H](C)C(=O)N[C@@H](CO)C(=O)N1CCC[C@H]1C(=O)N[C@@H](CCC(=O)O)C(=O)N[C@@H](CCC(=O)O)C(=O)N[C@@H](CC(C)C)C(=O)N[C@@H](CCC(N)=O)C(=O)N[C@@H](CCCNC(=N)N)C(=O)N[C@@H](Cc1ccc(O)cc1)C(=O)N[C@@H](CCC(=O)O)C(=O)N[C@H](C(=O)N[C@@H](CO)C(=O)N[C@@H](CC(C)C)C(=O)N[C@@H](CCCNC(=N)N)C(=O)N[C@@H](Cc1c[nH]cn1)C(=O)N[C@@H](Cc1ccc(O)cc1)C(=O)N[C@@H](Cc1ccc(O)cc1)C(=O)N[C@@H](CC(N)=O)C(=O)N[C@@H](Cc1c[nH]c2ccccc12)C(=O)N[C@@H](CC(C)C)C(=O)N[C@H](C(=O)N[C@@H](CCCNC(=N)N)C(=O)N[C@@H](CCC(N)=O)C(=O)N[C@@H](CCCNC(=N)N)C(=O)N[C@@H](Cc1ccc(O)cc1)C(N)=O)[C@@H](C)O)C(C)C [Compound 70, N{alpha-4}-(3-methylbutanoyl)-N{epsilon-7}-[2-(2-{2-[2-(2-{2-[(4S)-4-carboxy-4-(17-carboxyheptadecanamido)butanamido]ethoxy}ethoxy)acetamido]ethoxy}ethoxy)acetamido]-[4A,7K,9E,11A,18Q,21E,22V,28Y,30W,31L]hPYY (4-36)] (Isovaleryl-APEK([AEEA-AEEA-γGlu-C18 diacid])PEEAASPEELQRYEVSLRHYYNWLTRQRY-NH2) | 4.86 nM
4 | CC(C)CC(=O)N[C@@H](C)C(=O)N1CCC[C@H]1C(=O)N[C@@H](CCC(=O)O)C(=O)N[C@@H](CCCCNC(=O)COCCOCCNC(=O)COCCOCCNC(=O)CC[C@H](NC(=O)CCCCCCCCCCCCCCCCC(=O)O)C(=O)O)C(=O)N1CCC[C@H]1C(=O)N[C@@H](CCC(=O)O)C(=O)N[C@@H](CCC(=O)O)C(=O)N[C@@H](CCC(=O)O)C(=O)N[C@@H](C)C(=O)N[C@@H](CO)C(=O)N1CCC[C@H]1C(=O)N[C@@H](CO)C(=O)N[C@@H](CCC(=O)O)C(=O)N[C@@H](CC(C)C)C(=O)N[C@@H](CCC(N)=O)C(=O)N[C@@H](CCCNC(=N)N)C(=O)N[C@@H](Cc1ccc(O)cc1)C(=O)N[C@@H](Cc1ccc(O)cc1)C(=O)N[C@H](C(=O)N[C@@H](CO)C(=O)N[C@@H](CC(C)C)C(=O)N[C@@H](CCCNC(=N)N)C(=O)N[C@@H](Cc1c[nH]cn1)C(=O)N[C@@H](Cc1ccc(O)cc1)C(=O)N[C@@H](Cc1ccc(O)cc1)C(=O)N[C@@H](CC(N)=O)C(=O)N[C@@H](Cc1c[nH]c2ccccc12)C(=O)N[C@@H](CC(C)C)C(=O)N[C@H](C(=O)N[C@@H](CCCNC(=N)N)C(=O)N[C@@H](CCC(N)=O)C(=O)N[C@@H](CCCNC(=N)N)C(=O)N[C@@H](Cc1ccc(O)cc1)C(N)=O)[C@@H](C)O)C(C)C [Compound 71, N{alpha-4}-(3-methylbutanoyl)-N{epsilon-7}-[2-(2-{2-[2-(2-{2-[(4S)-4-carboxy-4-(17-carboxyheptadecanamido)butanamido]ethoxy}ethoxy)acetamido]ethoxy}ethoxy)acetamido]-[4A,7K,9E,11E,15S,18Q,22V,28Y,30W,31L]hPYY (4-36)] (Isovaleryl-APEK([AEEA-AEEA-γGlu-C18 diacid])PEEEASPSELQRYYVSLRHYYNWLTRQRY-NH2) | 5.22 nM
5 | CC(C)CC(=O)N[C@@H](C)C(=O)N1CCC[C@H]1C(=O)N[C@@H](CCC(=O)O)C(=O)N[C@@H](CCCCNC(=O)COCCOCCNC(=O)COCCOCCNC(=O)CC[C@H](NC(=O)CCCCCCCCCCCCCCCCC(=O)O)C(=O)O)C(=O)N1CCC[C@H]1C(=O)N[C@@H](CCC(=O)O)C(=O)N[C@@H](CCC(=O)O)C(=O)N[C@@H](CC(=O)O)C(=O)N[C@@H](C)C(=O)N[C@@H](CO)C(=O)N[C@@H](CCC(=O)O)C(=O)N[C@@H](CCC(=O)O)C(=O)N[C@@H](CCC(=O)O)C(=O)N[C@@H](CC(C)C)C(=O)N[C@@H](CCC(N)=O)C(=O)N[C@@H](CCCNC(=N)N)C(=O)N[C@@H](Cc1ccc(O)cc1)C(=O)N[C@@H](Cc1ccc(O)cc1)C(=O)N[C@H](C(=O)N[C@@H](CCC(=O)O)C(=O)N[C@@H](CC(C)C)C(=O)N[C@@H](CCCNC(=N)N)C(=O)N[C@@H](Cc1c[nH]cn1)C(=O)N[C@@H](Cc1ccc(O)cc1)C(=O)N[C@@H](Cc1ccc(O)cc1)C(=O)N[C@@H](CC(N)=O)C(=O)N[C@@H](Cc1c[nH]c2ccccc12)C(=O)N[C@@H](CC(C)C)C(=O)N[C@H](C(=O)N[C@@H](CCCNC(=N)N)C(=O)N[C@@H](CCC(N)=O)C(=O)N[C@@H](CCCNC(=N)N)C(=O)N[C@@H](Cc1ccc(O)cc1)C(N)=O)[C@@H](C)O)C(C)C [Compound 77, N{alpha-4}-(3-methylbutanoyl)-N{epsilon-7}-[2-(2-{2-[2-(2-{2-[(4S)-4-carboxy-4-(17-carboxyheptadecanamido)butanamido]ethoxy}ethoxy)acetamido]ethoxy}ethoxy)acetamido]-[4A,7K,9E,14E,18Q,22V,23E,28Y,30W,31L]hPYY (4-36)] | 6.17 nM
